Reference: ChEMBL document CHEMBL3046781, “Resistance of Helicoverpa assulta (Guenée) (Lepidoptera: Noctuidae) to fenvalerate, phoxim and methomyl in China” (2009)

Key:
Type in all cases: functional
Helicoverpa assulta [1] = assay: Insecticidal activity against sixth-instar larvae of Helicoverpa assulta HB2 at 1.8 to 183360 mg/l after 48 hr by chi-squared analysis
Helicoverpa assulta [2] = assay: Resistance factor, ratio of LD50 for sixth-instar larvae of Helicoverpa assulta FJ1 to LD50 for sixth-instar larvae of Helicoverpa assulta at 1.8 to 183360 mg/l
Helicoverpa assulta [3] = assay: Resistance factor, ratio of LD50 for sixth-instar larvae of Helicoverpa assulta GZ2 to LD50 for sixth-instar larvae of Helicoverpa assulta at 1.8 to 183360 mg/l
Helicoverpa assulta [4] = assay: Insecticidal activity against sixth-instar larvae of Helicoverpa assulta YN5 at 1.8 to 183360 mg/l after 48 hr by chi-squared analysis
Helicoverpa assulta [5] = assay: Insecticidal activity against sixth-instar larvae of Helicoverpa assulta FJ1 at 1.8 to 183360 mg/l after 48 hr by chi-squared analysis
Helicoverpa assulta [6] = assay: Resistance factor, ratio of LD50 for sixth-instar larvae of Helicoverpa assulta YN4 to LD50 for sixth-instar larvae of Helicoverpa assulta at 1.8 to 183360 mg/l
Helicoverpa assulta [7] = assay: Insecticidal activity against sixth-instar larvae of Helicoverpa assulta YN2 at 21 to 3390 mg/l after 48 hr by chi-squared analysis
Helicoverpa assulta [8] = assay: Insecticidal activity against sixth-instar larvae of Helicoverpa assulta YN6 at 21 to 3390 mg/l after 48 hr by chi-squared analysis
Helicoverpa assulta [9] = assay: Resistance factor, ratio of LD50 for sixth-instar larvae of Helicoverpa assulta AH1 to LD50 for sixth-instar larvae of Helicoverpa assulta at 21 to 3390 mg/l
Helicoverpa assulta [10] = assay: Insecticidal activity against sixth-instar larvae of Helicoverpa assulta FJ3 at 21 to 3390 mg/l after 48 hr by chi-squared analysis
Helicoverpa assulta [11] = assay: Insecticidal activity against sixth-instar larvae of Helicoverpa assulta GZ4 at 21 to 3390 mg/l after 48 hr by chi-squared analysis
Helicoverpa assulta [12] = assay: Insecticidal activity against sixth-instar larvae of Helicoverpa assulta YN3 at 21 to 3390 mg/l after 48 hr by chi-squared analysis
Helicoverpa assulta [13] = assay: Resistance factor, ratio of LD50 for sixth-instar larvae of Helicoverpa assulta GZ3 to LD50 for sixth-instar larvae of Helicoverpa assulta at 21 to 3390 mg/l
Helicoverpa assulta [14] = assay: Resistance factor, ratio of LD50 for sixth-instar larvae of Helicoverpa assulta YN6 to LD50 for sixth-instar larvae of Helicoverpa assulta at 21 to 3390 mg/l
Helicoverpa assulta [15] = assay: Resistance factor, ratio of LD50 for sixth-instar larvae of Helicoverpa assulta HN2 to LD50 for sixth-instar larvae of Helicoverpa assulta at 21 to 3390 mg/l
Helicoverpa assulta [16] = assay: Resistance factor, ratio of LD50 for sixth-instar larvae of Helicoverpa assulta FJ1 to LD50 for sixth-instar larvae of Helicoverpa assulta at 21 to 3390 mg/l
Helicoverpa assulta [17] = assay: Resistance factor, ratio of LD50 for sixth-instar larvae of Helicoverpa assulta YN3 to LD50 for sixth-instar larvae of Helicoverpa assulta at 21 to 3390 mg/l
Helicoverpa assulta [18] = assay: Resistance factor, ratio of LD50 for sixth-instar larvae of Helicoverpa assulta YN8 to LD50 for sixth-instar larvae of Helicoverpa assulta at 21 to 3390 mg/l
Helicoverpa assulta [19] = assay: Resistance factor, ratio of LD50 for sixth-instar larvae of Helicoverpa assulta GZ5 to LD50 for sixth-instar larvae of Helicoverpa assulta at 21 to 3390 mg/l
Helicoverpa assulta [20] = assay: Insecticidal activity against sixth-instar larvae of Helicoverpa assulta AH3 at 39 to 12630 mg/l after 48 hr by chi-squared analysis
Helicoverpa assulta [21] = assay: Insecticidal activity against sixth-instar larvae of Helicoverpa assulta YN3 at 39 to 12630 mg/l after 48 hr by chi-squared analysis
Helicoverpa assulta [22] = assay: Resistance factor, ratio of LD50 for sixth-instar larvae of Helicoverpa assulta FJ1 to LD50 for sixth-instar larvae of Helicoverpa assulta at 39 to 12630 mg/l
Helicoverpa assulta [23] = assay: Insecticidal activity against sixth-instar larvae of Helicoverpa assulta YN8 at 39 to 12630 mg/l after 48 hr by chi-squared analysis
Helicoverpa assulta [24] = assay: Insecticidal activity against sixth-instar larvae of Helicoverpa assulta SD2 at 39 to 12630 mg/l after 48 hr by chi-squared analysis
Helicoverpa assulta [25] = assay: Resistance factor, ratio of LD50 for sixth-instar larvae of Helicoverpa assulta GZ3 to LD50 for sixth-instar larvae of Helicoverpa assulta at 39 to 12630 mg/l
Helicoverpa assulta [26] = assay: Resistance factor, ratio of LD50 for sixth-instar larvae of Helicoverpa assulta AH1 to LD50 for sixth-instar larvae of Helicoverpa assulta at 39 to 12630 mg/l
Helicoverpa assulta [27] = assay: Resistance factor, ratio of LD50 for sixth-instar larvae of Helicoverpa assulta HB2 to LD50 for sixth-instar larvae of Helicoverpa assulta at 39 to 12630 mg/l
Helicoverpa assulta [28] = assay: Resistance factor, ratio of LD50 for sixth-instar larvae of Helicoverpa assulta YN8 to LD50 for sixth-instar larvae of Helicoverpa assulta at 39 to 12630 mg/l
Helicoverpa assulta [29] = assay: Resistance factor, ratio of LD50 for sixth-instar larvae of Helicoverpa assulta HN1 to LD50 for sixth-instar larvae of Helicoverpa assulta at 39 to 12630 mg/l
Helicoverpa assulta [30] = assay: Resistance factor, ratio of LD50 for sixth-instar larvae of Helicoverpa assulta HN2 to LD50 for sixth-instar larvae of Helicoverpa assulta at 39 to 12630 mg/l
Helicoverpa assulta [31] = assay: Resistance factor, ratio of LD50 for sixth-instar larvae of Helicoverpa assulta HB1 to LD50 for sixth-instar larvae of Helicoverpa assulta at 39 to 12630 mg/l
Helicoverpa assulta [32] = assay: Insecticidal activity against sixth-instar larvae of Helicoverpa assulta SD1 at 39 to 12630 mg/l after 48 hr by chi-squared analysis
Helicoverpa assulta [33] = assay: Insecticidal activity against sixth-instar larvae of Helicoverpa assulta YN4 at 39 to 12630 mg/l after 48 hr by chi-squared analysis
Helicoverpa assulta [34] = assay: Resistance factor, ratio of LD50 for sixth-instar larvae of Helicoverpa assulta YN5 to LD50 for sixth-instar larvae of Helicoverpa assulta at 39 to 12630 mg/l
Helicoverpa assulta [35] = assay: Resistance factor, ratio of LD50 for sixth-instar larvae of Helicoverpa assulta GZ1 to LD50 for sixth-instar larvae of Helicoverpa assulta at 39 to 12630 mg/l

In the case of `CC(C)C(C(=O)OC(C#N)c1cccc(Oc2ccccc2)c1)c1ccc(Cl)cc1` (centres undefined) [FENVALERATE], the LD90 (Helicoverpa assulta [1]) is reported as 18 µg/g, the LD50 (Helicoverpa assulta [1]; Helicoverpa assulta, HB2, 48 h) is reported as 4.62 mg/kg and the Ratio (Helicoverpa assulta [2]) is reported as 9.01. It also gave a Ratio (Helicoverpa assulta [3]) of 1042, an LD90 (Helicoverpa assulta [4]) of 4567 µg/g and an LD50 (Helicoverpa assulta [4]; Helicoverpa assulta, YN5, 48 h) of 1430 mg/kg. For the same molecule, the LD90 (Helicoverpa assulta [5]) was 5.67 µg/g, the LD50 (Helicoverpa assulta [5]; Helicoverpa assulta, FJ1, 48 h) was 1.46 mg/kg and the Ratio (Helicoverpa assulta [6]) was 9231.
Molecule `CNC(=O)ON=C(C)SC` [METHOMYL] has an LD90 (Helicoverpa assulta [7]) of 84.1 µg/g, an LD50 (Helicoverpa assulta [7]; Helicoverpa assulta, YN2, 48 h) of 26.6 mg/kg and an LD90 (Helicoverpa assulta [8]) of 66.2 µg/g. It also gave an LD50 (Helicoverpa assulta [8]; Helicoverpa assulta, YN6, 48 h) of 19.7 mg/kg, a Ratio (Helicoverpa assulta [9]) of 37.1 and an LD90 (Helicoverpa assulta [10]) of 137 µg/g. It also gave an LD50 (Helicoverpa assulta [10]; Helicoverpa assulta, FJ3, 48 h) of 23.6 mg/kg, an LD90 (Helicoverpa assulta [11]) of 55.5 µg/g and an LD50 (Helicoverpa assulta [11]; Helicoverpa assulta, GZ4, 48 h) of 16.7 mg/kg. It also gave an LD90 (Helicoverpa assulta [12]) of 78.5 µg/g, an LD50 (Helicoverpa assulta [12]; Helicoverpa assulta, YN3, 48 h) of 33.3 mg/kg and a Ratio (Helicoverpa assulta [13]) of 14.4. The Ratio (Helicoverpa assulta [14]) was 13.7, the Ratio (Helicoverpa assulta [15]) was 2.93 and the Ratio (Helicoverpa assulta [16]) was 14.6. It also gave a Ratio (Helicoverpa assulta [17]) of 23.1, a Ratio (Helicoverpa assulta [18]) of 23.1 and a Ratio (Helicoverpa assulta [19]) of 14.5.
With `CCOP(=S)(OCC)O/N=C(\C#N)c1ccccc1` [PHOXIM] the LD90 (Helicoverpa assulta [20]) was 181 µg/g, the LD50 (Helicoverpa assulta [20]; Helicoverpa assulta, AH3, 48 h) was 33.3 mg/kg and the LD90 (Helicoverpa assulta [21]) was 56.4 µg/g. The LD50 (Helicoverpa assulta [21]; Helicoverpa assulta, YN3, 48 h) was 29.2 mg/kg, the Ratio (Helicoverpa assulta [22]) was 7.13 and the LD90 (Helicoverpa assulta [23]) was 105 µg/g. For the same molecule, the LD50 (Helicoverpa assulta [23]; Helicoverpa assulta, YN8, 48 h) was 40.3 mg/kg, the LD90 (Helicoverpa assulta [24]) was 50.5 µg/g and the LD50 (Helicoverpa assulta [24]; Helicoverpa assulta, SD2, 48 h) was 17.2 mg/kg. The Ratio (Helicoverpa assulta [25]) was 8.94, the Ratio (Helicoverpa assulta [26]) was 50.8 and the Ratio (Helicoverpa assulta [27]) was 5.04. It also gave a Ratio (Helicoverpa assulta [28]) of 17.2, a Ratio (Helicoverpa assulta [29]) of 4.5 and a Ratio (Helicoverpa assulta [30]) of 3.51. It also gave a Ratio (Helicoverpa assulta [31]) of 3.49, an LD90 (Helicoverpa assulta [32]) of 26.5 µg/g and an LD50 (Helicoverpa assulta [32]; Helicoverpa assulta, SD1, 48 h) of 11.9 mg/kg. The LD90 (Helicoverpa assulta [33]) was 94 µg/g, the LD50 (Helicoverpa assulta [33]; Helicoverpa assulta, YN4, 48 h) was 39.6 mg/kg and the Ratio (Helicoverpa assulta [34]) was 11. It also gave a Ratio (Helicoverpa assulta [35]) of 14.3.
